Assay results published in patent US8637566B2, “Slow infusion of sulcardine and its salts” (HUYA Bioscience International LLC, priority 2009, dated 2014).

How the values were obtained:
anesthetized dogs = experiment: Hemodynamic effects of 15 minute infusions (10, 30, 90 mg/kg) with or without diphenhydramine pretreatment; type: in vivo, dog; settings: given prior to IV sulcardine sulfate
Procedure: Dogs were administered morphine (2 mg/kg subcutaneously) approximately 10-19 minutes prior to administration of anesthesia. Dogs were anesthetized with 1% α-chloralose (100 mg/kg intravenous), followed by a constant infusion of α-chloralose (35-75 mg/kg/hr, IV). Two healthy female dogs were administered escalating doses of sulcardine sulfate intravenously over 15 minutes in an acetate buffer system at dose levels of 10, 30 and 90 mg/kg with dose administrations separated by 60 minutes. Another set of two dogs received test article after pre-treatment with diphenhydramine (1 mg/kg administered 30 minutes prior to start of test article infusion). Following drug administration, dogs were evaluated for ventricular, pulmonary and peripheral hemodynamic changes using Swanz Ganz and femoral catheters as well as by monitoring of blood oxygen saturation, test article blood level, body temperature, blood biochemistry, hematology, ECG, and histamine levels.

conscious beagle dogs = experiment: 10 minute intravenous infusion, increasing doses: mean blood pressure, heart rate, plasma histamine (ELISA); type: in vivo, dog; settings: pretreatment before i.v. sulcardine sulfate
post-MI canine = experiment: Defibrillation threshold / failure risk in post-MI canine model; type: in vivo

Row | Defibrillation failure risk (post-MI canine) | Compound | Effect of anti-histamine on cutaneous manifestations of histamine release (flushing and facial and ear edema) (anesthetized dogs) | Effect of anti-histamine on hypotension seen on dosing (anesthetized dogs) | Effect of pretreatment on histamine-mediated events of sulcardine sulfate (conscious beagle dogs)
1 | – | CN(C)CCOC(c1ccccc1)c1ccccc1 [diphenhydramine, reference compound] | blunting some of the cutaneous manifestations of histamine release | only partially reversed the hypotension | prevented the histamine-mediated events
2 | increase defibrillation failure risk | O=C(NCC1CCCCN1)c1cc(OCC(F)(F)F)ccc1OCC(F)(F)F (centres unmarked) [flecanide] | – | – | –
3 | – | N#Cc1cc(NC(=O)C(=O)O)c(Cl)c(NC(=O)C(=O)O)c1 [lodoxamide] | – | – | prevented the histamine-mediated events
